In US6291247A, “Methods of screening for factors that disrupt neurotrophin conformation and reduce neurotrophin biological activity” (priority 1996, dated 2001):

Columns and labels:
[1] = target: T1, p75^NTR and TrkA (Mus musculus, UniProt P01139); assay: Binding of 125I-NGF to PC12 cells (p75NTR + TrkA); parameters: species or system rat; conditions: ± SEM, 120 min
T1 construct: these cells express both NGF receptor types; endogenous in cells; host or cells: PC12 rat pheochromocytoma cells
Experimental: (§1) PC12 cells were grown in RPMI with 10% heat inactivated donor horse serum and 5% fetal calf serum. […] The tubes were incubated for 2 hr at 4° C. and 100 μl aliquots (providing triplicate data points for each sample) were transferred to 400 μl microcentrifuges containing 200 μl of 10% glycerol in HKR. Tubes were centrifuged for 2 minutes at 5,000 rpm, the tip containing the cell pellet cut off and radioactivity bound to the cells was determined.

[2] = test system: T2, p75^NTR and TrkA; assay: Binding of 125I-NGF to PC12 cells (p75NTR + TrkA); parameters: species or system rat; conditions: 100 μM; CaEDTA together with Zn2+
T2 construct: these cells express both NGF receptor types; endogenous in cells; host or cells: PC12 rat pheochromocytoma cells
Experimental: as §1

[3] = target: T3, NGF (Mus musculus, UniProt P01139); assay: NGF protomer crosslinking with BS3 (NGF conformation), metal ions; assay type: biochemical; conditions: 0.1 nM 125I-NGF; CaEDTA together with Zn2+
T3 construct: homodimer
Experimental: For crosslinking NGF […], 0.4 mM BS^3 was added to the mixture and incubated for 30 minutes at 25° C. […] For CD studies, NGF (50 μg/ml) was dissolved in 50 mM Tris-HCl buffer and spectra recorded using a computer controlled Jasco J-600 spectropolarimeter. Samples were acquired in the absence or presence of Zn^2+ (100 μM) at 22° C. in a 2 mm quartz cell averaged over eight scans. Modification of His residues by DEPC was carried out as previously described, where the molar excess of DEPC added and the extent of reaction was determined by evaluating the loss of binding activity of the modified product.

[4] = test system: T4, TrkA; assay: Binding of 125I-NGF to TrkA on PC12 cells (p75NTR blocked with BDNF); parameters: species or system rat; conditions: 100 μM CaEDTA with 100 μM Zn2+; 40 nM BDNF; ± SEM; 120 min
T4 construct: Receptor cross-linking studies were performed on PC12 rat pheochromocytoma cells; endogenous in cells; host or cells: PC12 rat pheochromocytoma cells (ATCC CRL 1721)
Experimental: as §1

[5] = test system: PC12 cells; assay: NGF-dependent survival of PC12 cells; assay type: cell-based, rat; conditions: 100 μM, serum-free; CaEDTA together with Zn2+
Experimental: (§2) Effects of divalent ions on NGF mediated survival and toxicity was evaluated using a colorimetric assay for the lysosomal enzyme acid phosphatase to determine cell number (Connolly, D. T., Knight, M. B., Harakas, N. K, Wittwer, A. J. & Feder, J. Determination of the number of endothelial cells in culture using an acid phosphatase assay. Anal. Biochem. 152, 136-140 (1986); Ueda, Y., Walsh, E., Nakanishi H. & Yoshida, K. A. colorometric assay method for the evaluation of neurotrophic activity in vitro. Neurosci. Lett. 165, 203-207 (1994)). […] To evaluate toxicity, the cells were seeded and maintained without NGF in RPMI with 10% heat inactivated donor horse serum and 5% fetal calf serum in the presence of additives. Loss in viable cell number was determined and expressed as a percent of control. NGF rescues PC12 cells from cell death in serum-free medium(Greene, L. A. Nerve growth factor prevents the death and stimulates neuronal differentiation of clonal PC12 pheochromocytoma cells in serum-free medium. J. Cell Biol. 78, 747-755 (1978)). NGF-dependent survival was assessed by harvesting PC12 cells in balanced salt solution followed with washing by 4 cycles of suspension and centrifugation in serum-free RPMI prior to seeding in 96 well plates. After incubation with additives, medium was removed from the wells and cells washed once with 200 μl PBS. Buffer containing 0.1M sodium acetate pH 5.5, 0.1% Triton X-100 and 10 mM p-nitrophenyl phosphate (Sigma 104 phosphatase substrate) was added to each well (100 μl). Plates were incubated at 37° C. for 3 hours. The reaction was stopped by the addition of 10 μl/well of 1N sodium hydroxide and the color development measured at 405 nm using a microplate reader. The relationship between cell number and enzyme activity was linear over the range 1000 to 15,000 cells.
(§3) To explore the ability of other transition metals to influence the biological activities of NGF, a series of cations known to mimic in certain respects the binding of zinc to proteins were tested. […] For this reason these ions were not tested in NGF- dependant growth phenomena. […] As these studies appeared to indicate potentially complex results upon metal ions binding to NGF, a receptor crosslinking system where specific receptor types could be identified was utilized.

[6] = test system: TrkA receptor; assay: NGF-dependent TrkA phosphorylation in PC12 cells, metal ions; assay type: cell-based, rat; conditions: for NGF-induced TrkA phosphorylation: 100 μM, PC12 cells
Experimental: Zn^2+ and/or other additives were allowed to equilibrate with NGF for 2 hours at 4° C. prior to addition of cells. PC12 cells were used at 10^6 cells/ml and incubated with 40 pM NGF for 15 minutes at 37° C. At the conclusion of the reaction, cells were washed, lysed in TBS containing 10% glycerol, 1% Triton X-100, 1 mM PMSF, 10 μg/ml aprotinin, 1 μg/ml leupeptin and 500 μM orthovanadate (lysis buffer, 10^8 cells/ml). The cellular debris was removed by centrifugation and the soluble proteins incubated with an anti-TrkA cytoplasmic domain antibody. Antibody complexes were isolated by incubating with immobilized protein G (Pierce Ultralink; 70 μl of a 50% slurry) for 2 hours at 4° C. The solid phase was washed extensively with lysis buffer and the pellet dissolved in SDS sample buffer. Proteins were resolved using 6% SDS PAGE and Western analysis performed with anti-phosphotyrosine 4G10 (UBI) visualized with ECL (Amersham).

[7] = test system: PC12 cells; assay: Toxicity to PC12 cells; assay type: cell-based, rat; conditions: for Toxicity (PC12 cell viability): 100 μM
Experimental: as §2, §3

[8] = test system: PC12 cells; assay: Toxicity to PC12 cells; assay type: cell-based, rat
[9] = test system: DRG neurons; assay: NGF-mediated neurite outgrowth of DRG neurons, metal ions; assay type: cell-based, chick; conditions: 100 μM
Experimental: Dissosiated cells enriched for sensory neurons were prepared from ED8 chick DRG as described (Dostaler, S. M. et al. Characterization of a distinctive motif of the low molecular weight neurotrophin receptor that modulates NGF-mediated neurite growth. Eur. J. Neurosci. 8, 870-879 (1996)). Neurons were seeded at a density of 800-1000 cells/well in Ham's F-12 containing 5% FCS and NGF at 10 pM into wells of Terasaki plates treated with polyysine. The cells were incubated with the indicated additives at 37° C. in a 5% CO2 atmosphere. The cells on the entire lower horizontal surface of the well were scored for neurite growth at 18-20 hours using an inverted microscope fitted with phase contrast optics. A neurite was scored if its caliber from the origin to terminal was constant and its length was equal to or greater than 1.5 cell body diameters. Neurite growth was corrected for background (no NGF).

T3 sequence (P01139 122-239): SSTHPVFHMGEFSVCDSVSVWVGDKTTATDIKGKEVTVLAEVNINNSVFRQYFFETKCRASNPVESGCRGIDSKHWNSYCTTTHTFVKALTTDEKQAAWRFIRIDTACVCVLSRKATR
T1 sequence (P01139 122-239): as above
T2 sequence (P01139 122-239): as above
T4 sequence (P01139 122-239): as above

Row | Structure (SMILES) | Inhibition of 125I-NGF binding [2] | NGF monomer crosslinking by BS3 [3] | NGF-mediated survival of PC12 cells [5] | NGF-induced TrkA phosphorylation [6] | Toxicity (PC12 cell viability) [7] [% control] | Toxicity to PC12 cells in serum-free conditions [8] | other results
1 | O=C([O-])CN(CCN(CC(=O)[O-])CC(=O)[O-])CC(=O)[O-].[Ca+2].[Na+].[Na+] [CaEDTA, reference compound] | Inhibitory effects of Zn^2+ could also be prevented | prevented the Zn^2+ effects | reversed | Neither Ca^2+, Mg^2+ nor CaEDTA had a significant effect | – | – | steady-state specific binding of 125I-NGF (0.5 nM) to p75NTR and TrkA ([1]; 100 μM CaEDTA with 100 μM Zn2+): 78 ± 19 % Control; steady-state specific binding of 125I-NGF (0.5 nM) to TrkA [4]: 87 ± 13 % Control; Reversal of Zn2+ inhibition of TrkA phosphorylation ([6]; CaEDTA 100 μM with Zn2+ 100 μM): reversed by CaEDTA
2 | [Cd+2] [Cd^2+] | – | – | – | – | 63 ± 10 | toxic to PC12 cells | –
3 | [Mg+2] [Mg^2+, reference compound] | neither Ca^2+ nor Mg^2+ displayed significant inhibition | no effect on crosslinking efficiency | no effect | not detected | – | – | Toxicity to PC12 cells ([7]; in presence of serum, up to 100 μM): not toxic; steady-state specific binding of 125I-NGF (0.5 nM) to p75NTR and TrkA ([1]; 100 μM): 88 ± 13 % Control; NGF-induced neurite extension [9]: no effect
4 | [Co+2] [Co^2+] | – | – | – | – | 52 ± 14 | toxic to PC12 cells | –
5 | [Hg+2] [Hg^2+] | – | – | – | – | 3 ± 0.8 | toxic to PC12 cells | –
